PMC12467903, “A Sensitive Electrochemical Cholinesterase-Inhibiting Biosensor for Organophosphorus Pesticides Based on Ti3C2TX MXene Quantum Dots” (Biosensors, 2025)

Columns and labels:
Type in all cases: biochemical
[1] = biological target: T1, acetylcholinesterase (AChE) (Electrophorus electricus, UniProt O42275); test: electrochemical (DPV/EIS/CV) inhibition of immobilized AChE, acetylthiocholine substrate
[2] = biological target: T1, acetylcholinesterase (AChE); test: electrochemical detection of thiocholine from hydrolysis by immobilized AChE
[3] = biological target: T1, acetylcholinesterase (AChE); test: DPV peak current suppression with immobilized AChE ([…] at […])

T1 sequence (O42275 24-633): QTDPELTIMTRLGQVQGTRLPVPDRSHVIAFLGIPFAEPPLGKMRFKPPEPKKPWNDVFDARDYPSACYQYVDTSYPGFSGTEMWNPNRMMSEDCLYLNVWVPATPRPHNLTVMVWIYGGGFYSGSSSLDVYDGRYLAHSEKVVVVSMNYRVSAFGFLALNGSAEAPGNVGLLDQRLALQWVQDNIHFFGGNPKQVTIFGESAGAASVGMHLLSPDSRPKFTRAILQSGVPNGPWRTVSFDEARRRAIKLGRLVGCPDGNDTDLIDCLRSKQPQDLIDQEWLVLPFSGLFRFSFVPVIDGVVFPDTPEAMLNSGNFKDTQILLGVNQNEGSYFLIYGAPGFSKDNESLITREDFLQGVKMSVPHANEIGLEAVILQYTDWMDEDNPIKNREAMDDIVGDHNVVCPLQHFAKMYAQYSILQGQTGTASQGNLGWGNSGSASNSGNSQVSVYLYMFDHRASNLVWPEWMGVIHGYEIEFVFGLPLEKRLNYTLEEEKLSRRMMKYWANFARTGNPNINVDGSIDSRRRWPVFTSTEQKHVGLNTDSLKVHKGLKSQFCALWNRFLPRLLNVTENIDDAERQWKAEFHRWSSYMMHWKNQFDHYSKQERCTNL

Compound: CCOP(=S)(OCC)Oc1nc(Cl)c(Cl)cc1Cl [CPS, chlorpyrifos]
- Ki [1]: 62 nM

Compound: CC(=O)SCC[N+](C)(C)C [ACTI, acetylthiocholine iodide]
- electrochemical detection of thiocholine from hydrolysis by immobilized AChE [2]: In the absence of OP, AChE efficiently hydrolyzed ACTI into electroactive thiocholine (TCh)

Compound: COP(=O)(NC(C)=O)SC (stereo not drawn) [ACE, acephate]
- percent DPV peak current suppression [3]: 37% at 2 nM
